In patent US4416877A, “Anti-atherosclerotic pharmaceutical compositions containing diphosphonate compounds” (priority 1979, dated 1983):
Entries after “also recorded” stand apart in the source; their conditions may differ. Where two headings read alike, the source gives them in different places.

Assays:
lipid metabolism = assay: Effects of diphosphonates on lipid metabolism in normal rats (serum lipids, α/β cholesterol); format: in vivo, male Wistar rats; settings: for Serum Chol. α/β (% control values) / Serum Free Fatty Acids (% control values) / Serum Phospholipids (% control values) / Serum Triglycerides (% control values) / change in vivo at 200 mg/kg/day: normal rats (N), 200 mg/kg/day p.o.; for increased HDL lipids, especially HDL cholesterol: normal rats; for change in vivo at 200 mg/kg/day: Rattus norvegicus, po
Protocol: Effects of diphosphonates of formula (I) on lipid metabolism in normal rats Groups of 4 to 5 normal male Wistar rats, weighing about 200 g were treated with diphosphonates (200 mg/kg/day) p.o. for 4 to 21 days. Water soluble compounds were given in solution in 24 mM bicarbonate buffer. Lipid soluble compounds were given in corn oil. The rats were weighed, sacrificed by decapitation (under light ether anesthesia) after overnight fasting. Blood was collected and serum used for analysis. The following blood parameters reflecting changes in lipid metabolism are reported: […]
free fatty acids measured according to W. G. Duncombe (Clin. Acta 9, 122, 1964) triglycerides enzymatic method (Boehringer Mannheim Kit 126 012) phospholipids: molybdate/vanadate reaction (Boehringer Mannheim Kit 124 974) β-lipoprotein cholesterol was measured after heparin, CaCl2 precipitation according to M. Burstein et al. (La Presse Medicale 43, 974, 1958) and to D. Watson (Clin. Chim. Acta 5, 637, 1960).
(§1) In above Table IV, results are given as % control values. Except for serum calcium, values which differ from control values by less than 15% are considered as non significant (NS).
Serum free fatty acids, triglycerides and phospholipids were measured in normal rats (N) and rats previously fed a cholesterol diet for 10 days (C.F.) Serum α/β cholesterol, total lipids and cholesterol of liver and aorta were determined in normal rats (N) and rats which had previously been fed on high cholesterol diet (C.F.)

tissue cholesterol = assay: Effects in cholesterol fed rats (serum, liver and aorta lipids); format: in vivo; settings: for liver total lipids and/or liver cholesterol: cholesterol fed rats; for change in vivo at 200 mg/kg/day: Rattus norvegicus
Protocol: Effects of diphosphonates of formula (I) in cholesterol fed rats
In order to increase tissue cholesterol, especially liver, rats were fed a high fat-high cholesterol diet for 10 days to 3 months, with the following diet composition: casein 20%, butter 37%, cellulose 9.1%, dextrose 18,9%, cholesterol 4.5%, sodium cholate 1.8%, minerals 7.3%, vitamins 1%, choline 0.4%.
The rats were then fed normal food and were treated for 10 days to 3 months with different compounds (200 mg/kg/day). Serum parameters described above were measured. Liver and aorta lipids were extracted according to J. Folch et al (J. Biochem. 226, 497, 1957). Total lipids were determined by the sulfophosphovanillic reaction (see N. Zolner and K. Kirsch, Z. Ges. exp. Med. 135, 545, 1962) and cholesterol by the Liebermann-Burchard reaction or appropriate enzymatic reaction.
as §1
Serum free fatty acids, triglycerides and phospholipids were measured in normal rats (N) and rats previously fed a cholesterol diet for 10 days (C.F.)
Serum α/β cholesterol, total lipids and cholesterol of liver and aorta were determined in normal rats (N) and rats which had previously been fed on high cholesterol diet (C.F.)

[1] = cholesterol fed rats (C.F), 200 mg/kg/day
[2] = read-out: Serum Chol. α/β (% control values)
[3] = read-out: Serum Free Fatty Acids (% control values)
[4] = read-out: Serum Phospholipids (% control values)
[5] = read-out: Serum Triglycerides (% control values)
[6] = cholesterol fed rats (C.F), 200 mg/kg/day, read-out: Liver Chol. (% control values)
[7] = cholesterol fed rats (C.F), 200 mg/kg/day, read-out: Liver Total Lipids (% control values)

| Structure (SMILES) | increased HDL lipids, especially HDL cholesterol (lipid metabolism) | increase in serum phospholipid (lipid metabolism; rats) | α-cholesterol/β-cholesterol ratio / lipoprotein cholesterol (lipid metabolism; rats) | change in vivo at 200 mg/kg/day (lipid metabolism; [2]) [%] | change in vivo at 200 mg/kg/day (lipid metabolism; [4]) [%] | change in vivo at 200 mg/kg/day (lipid metabolism; [5]) [%] | other results |
| --- | --- | --- | --- | --- | --- | --- | --- |
| COP(=O)(OC)C(O)(C(C)(C)C)P(=O)(OC)OC [Compound 1] |  |  |  |  |  |  | Serum Chol. α/β (% control values) (lipid metabolism): NS (Except for serum calcium, values which differ from control values by less than 15% are considered as non significant (NS)); Serum Free Fatty Acids (% control values) (lipid metabolism): NS (Except for serum calcium, values which differ from control values by less than 15% are considered as non significant (NS)); Serum Phospholipids (% control values) (lipid metabolism): -43%; Serum Triglycerides (% control values) (lipid metabolism): +24%; property to change lipid metabolism / increase HDL (lipid metabolism; rats): do not have these properties |
| COP(=O)(OC)C(O)(c1ccccc1)P(=O)(OC)OC [Compound 2] | observed most dramatically | found to increase | highly significant activity |  |  |  | Serum Free Fatty Acids (% control values) (lipid metabolism): NS (Except for serum calcium, values which differ from control values by less than 15% are considered as non significant (NS)); Serum Phospholipids (% control values) (lipid metabolism): +25%; Serum Triglycerides (% control values) (lipid metabolism): -21%; decreases in serum triglycerides (lipid metabolism; rats): Significant decreases; liver total lipids and/or liver cholesterol (tissue cholesterol): decreased significantly; Aorta Chol. (% control values) (tissue cholesterol; [1]): NS (Except for serum calcium, values which differ from control values by less than 15% are considered as non significant (NS)); Aorta Total Lipids (% control values) (tissue cholesterol; [1]): -30%; Liver Chol. (% control values) (tissue cholesterol; [1]): -50%; Liver Total Lipids (% control values) (tissue cholesterol; [1]): -24%; Serum Chol. α/β (% control values) (tissue cholesterol; [1]): +88%; Serum Free Fatty Acids (% control values) (tissue cholesterol; [1]): -56%; Serum Phospholipids (% control values) (tissue cholesterol; [1]): NS (Except for serum calcium, values which differ from control values by less than 15% are considered as non significant (NS)); Serum Triglycerides (% control values) (tissue cholesterol; [1]): -15% |
| COP(=O)(OC)C(O)(c1ccc(C)cc1)P(=O)(OC)OC [Compound 3] |  |  |  | < 15 | < 15 | < 15 | change in vivo at 200 mg/kg/day (lipid metabolism; [3]): < 15% |
| COP(=O)(OC)C(O)(c1ccc(Cl)cc1)P(=O)(OC)OC [Compound 4, Tetramethyl 1-(p-chlorophenyl)methane 1-hydroxy 1,1-diphosphonate] | observed most dramatically | found to increase; also recorded: at least two fold the most active | highly significant activity |  | 43 | -24 | change in vivo at 200 mg/kg/day (lipid metabolism; [3]): -48%; decreases in serum triglycerides (lipid metabolism; rats): Significant decreases; change in vivo at 200 mg/kg/day (tissue cholesterol; [6]): -56%; change in vivo at 200 mg/kg/day (tissue cholesterol; [7]): -31%; liver total lipids and/or liver cholesterol (tissue cholesterol): decreased significantly; Aorta Chol. (% control values) (tissue cholesterol; [1]): NS (Except for serum calcium, values which differ from control values by less than 15% are considered as non significant (NS)); Aorta Total Lipids (% control values) (tissue cholesterol; [1]): -47%; Serum Chol. α/β (% control values) (tissue cholesterol; [1]): +220%; Serum Free Fatty Acids (% control values) (tissue cholesterol; [1]): -67%; Serum Phospholipids (% control values) (tissue cholesterol; [1]): +21%; Serum Triglycerides (% control values) (tissue cholesterol; [1]): -21% |
| COP(=O)(OC)C(O)(c1ccc(F)cc1)P(=O)(OC)OC [Compound 5] | observed most dramatically |  | highly significant activity | 64 |  | 27 |  |
| COP(=O)(OC)C(O)(C(C)(C)Oc1ccc(Cl)cc1)P(=O)(OC)OC [Compound 7, Tetramethyl 2,2-dimethyl 2(p-chlorophenoxy) ethane 1-hydroxy 1,1-diphosphonate] |  | found to increase |  |  | 26 | -33 | change in vivo at 200 mg/kg/day (lipid metabolism; [3]): 28%; decreases in serum triglycerides (lipid metabolism; rats): Significant decreases; change in vivo at 200 mg/kg/day (tissue cholesterol; [6]): -25%; change in vivo at 200 mg/kg/day (tissue cholesterol; [7]): < 15%; liver total lipids and/or liver cholesterol (tissue cholesterol): decreased significantly; Aorta Chol. (% control values) (tissue cholesterol; [1]): -19%; Aorta Total Lipids (% control values) (tissue cholesterol; [1]): -27%; Serum Chol. α/β (% control values) (tissue cholesterol; [1]): +27%; Serum Free Fatty Acids (% control values) (tissue cholesterol; [1]): -40%; Serum Phospholipids (% control values) (tissue cholesterol; [1]): NS (Except for serum calcium, values which differ from control values by less than 15% are considered as non significant (NS)); Serum Triglycerides (% control values) (tissue cholesterol; [1]): NS (Except for serum calcium, values which differ from control values by less than 15% are considered as non significant (NS)) |
| COP(=O)(OC)OC(C1CCCCC1)P(=O)(OC)OC (stereo not shown) [Compound 12] |  |  |  |  |  |  | Serum Chol. α/β (% control values) (lipid metabolism): NS (Except for serum calcium, values which differ from control values by less than 15% are considered as non significant (NS)); Serum Phospholipids (% control values) (lipid metabolism): NS (Except for serum calcium, values which differ from control values by less than 15% are considered as non significant (NS)); Serum Triglycerides (% control values) (lipid metabolism): -46%; decreases in serum triglycerides (lipid metabolism; rats): Significant decreases |
| COP(=O)(OC)OC(c1ccccc1Cl)P(=O)(OC)OC (stereo not shown) [Compound 14] |  |  |  | 34 | 22 | -42 |  |
| COP(=O)(OC)OC(c1cccc(Cl)c1)P(=O)(OC)OC (stereo not shown) [Compound 15] | observed most dramatically |  | highly significant activity | 69 | < 15 | -37 |  |
| COP(=O)(OC)OC(c1ccc(F)cc1)P(=O)(OC)OC (stereo not shown) [Compound 17] | observed most dramatically |  | highly significant activity | 81 | < 15 | < 15 |  |
| COP(=O)(OC)OC(c1cc(C)ccc1C)P(=O)(OC)OC (stereo not drawn) [Compound 19, Dimethyl α-(dimethoxyphosphinyl)2,5-dimethylbenzyl phosphate] |  |  |  | 15 | < 15 | < 15 | decreases in serum triglycerides (lipid metabolism; rats): Significant decreases |
| COP(=O)(OC)OC(C(C)(C)c1ccccc1)P(=O)(OC)OC (stereo not shown) [Compound 20] |  | found to increase |  | 25 | 15 | 36 |  |
| COP(=O)(OC)OC(C(C)(C)Cc1ccc(Cl)cc1)P(=O)(OC)OC (stereo not shown) [Compound 22] |  |  |  | -38 | < 15 | -19 |  |
| COP(=O)(OC)OC(c1ccc(C(=O)c2ccc(Cl)cc2)cc1)P(=O)(OC)OC (stereo not drawn) [Compound 23, Dimethyl [α-(dimethoxyphosphinyl) 4-(4'-chlorobenzoyl)]benzyl phosphate] | observed most dramatically | found to increase; also recorded: at least two fold the most active | highly significant activity | 55 | 53 | < 15 |  |
| CCCCOP(=O)(OCCCC)OC(c1ccc(Cl)cc1)P(=O)(OCCCC)OCCCC (stereo not shown) [Compound 25] |  |  |  |  |  |  | Serum Chol. α/β (% control values) (lipid metabolism): NS (Except for serum calcium, values which differ from control values by less than 15% are considered as non significant (NS)); Serum Phospholipids (% control values) (lipid metabolism): NS (Except for serum calcium, values which differ from control values by less than 15% are considered as non significant (NS)); Serum Triglycerides (% control values) (lipid metabolism): NS (Except for serum calcium, values which differ from control values by less than 15% are considered as non significant (NS)) |
| CCOP(=O)(OCC)C(CCCc1ccccc1)P(=O)(OCC)OCC [Compound 29, Tetraethyl 4-phenylbutylidene 1,1-diphosphonate] |  | found to increase |  | 33 | 17 | 46 |  |
| COP(=O)(OC)C(CCCc1ccccc1)P(=O)(OC)OC [Compound 37, Tetramethyl 4-phenylbutylidene 1,1-diphosphonate] | observed most dramatically | found to increase | highly significant activity | 49 | 33 | 42 |  |
